Among the data in article PMC11775185, “Structure and function of a near fully-activated intermediate GPCR-Gαβγ complex” (Nature Communications, 2025) are Km values, retold here.

One may read the Km as the substrate concentration at which the rate is half of its maximum.

What all share (experiment): GTPase-Glo luminescence, Lineweaver-Burk
Assay [1] concerns T1, Gαsβγ alone.
T1 construct: gene GNAS; full-length Gαsβγ heterotrimer without receptor
In kind it is biochemical. The note with it: […] Gαsβγ without receptor, with cognate GAP, pH […], room temperature. The text has this:
GTPase-Glo luminescence, Lineweaver-Burk on Gαsβγ alone | Km values for S4 mediated Gαsβγ, in reference to Gαsβγ alone (negative control)

In assay [2] the test system is T2, Gαsβγ (A2AR-Gαsβγ complex).
T2 construct: gene GNAS; cited protocols may use bovine/rat subunits), with purified A2AR_316 V229C in LMNG/CHS; Adenosine receptor A2a
In kind it is biochemical, Homo sapiens. Particulars: R291A receptor (S4), with cognate GAP, pH […], room temperature. The source says: GTPase-Glo luminescence, Lineweaver-Burk on WT*-mediated Gαsβγ (A2AR-Gαsβγ complex) | we measured the initial rates and Michaelis constants of GTP hydrolysis

Assay [3] has as its system T3, WT*-mediated Gαsβγ (A2AR-Gαsβγ complex).
T3 construct: gene GNAS; cited protocols may use bovine/rat subunits), with purified A2AR_316 V229C in LMNG/CHS; Adenosine receptor A2a
In kind it is biochemical, Homo sapiens. The note with it: agonist-activated WT* receptor (S5), with cognate GAP, pH […], room temperature. The source says: GTPase-Glo luminescence, Lineweaver-Burk on WT*-mediated Gαsβγ (A2AR-Gαsβγ complex) | and the S5 mediated Gαsβγ (positive control)

Molecules are shown by their SMILES.

In the case of `Nc1nc2c(ncn2[C@@H]2O[C@H](COP(=O)(O)OP(=O)(O)OP(=O)(O)O)[C@@H](O)[C@H]2O)c(=O)[nH]1` [GTP], the Km in assay [1] amounted to 8.3 ± 0.61 µM; in assay [2], 18 ± 1.87 µM; in assay [3], 32.1 ± 1 µM.
